Converted amounts (≈) assume the structure as drawn.
Columns and labels:
Format in all cases: functional
Staphylococcus aureus [1] = test: Antibacterial activity against Staphylococcus aureus ATCC 29213 after 16 hrs by agar dilution method; conditions: ATCC 29213, 16 h
Staphylococcus aureus [2] = test: Antibacterial activity against methicillin-resistant Staphylococcus aureus after 16 hrs by agar dilution method
[3] = system: Staphylococcus epidermidis; test: Antibacterial activity against methicillin-resistant Staphylococcus epidermidis after 16 hrs by agar dilution method
Streptococcus pneumoniae = test: Antibacterial activity against penicillin-resistant Streptococcus pneumoniae after 16 hrs by agar dilution method
Enterococcus faecalis [4] = test: Antibacterial activity against Enterococcus faecalis after 16 hrs by agar dilution method
Staphylococcus aureus [5] = test: Antibacterial activity against linezolid-resistant Staphylococcus aureus after 16 hrs by agar dilution method
[6] = system: Staphylococcus epidermidis; test: Antibacterial activity against linezolid-resistant Staphylococcus epidermidis after 16 hrs by agar dilution method
Enterococcus faecalis [7] = test: Antibacterial activity against linezolid-resistant Enterococcus faecalis after 16 hrs by agar dilution method
Enterococcus faecium = test: Antibacterial activity against linezolid-resistant Enterococcus faecium after 16 hrs by agar dilution method

Compound `CC(=O)NC[C@@H]1OC(=O)N2c3ccc(N4CCOCC4)cc3OC[C@@H]12` has an MIC (Staphylococcus aureus [1]) of 4 µg/mL (≈ 11.5 µM), an MIC (Staphylococcus aureus [2]) of 4 µg/mL (≈ 11.5 µM) and an MIC [3] of 4 µg/mL (≈ 11.5 µM). The MIC (Streptococcus pneumoniae) was 8 µg/mL (≈ 23 µM) and the MIC (Enterococcus faecalis [4]) was 8 µg/mL (≈ 23 µM).
`CC(=O)NC[C@@H]1OC(=O)N2c3ccc(N4CCN(Cc5cccc([N+](=O)[O-])c5)CC4)cc3OC[C@@H]12` was tested, and the MIC (Staphylococcus aureus [1]) was over 16 µg/mL, the MIC (Staphylococcus aureus [2]) was over 16 µg/mL and the MIC [3] was over 16 µg/mL. For the same compound, the MIC (Streptococcus pneumoniae) was over 16 µg/mL and the MIC (Enterococcus faecalis [4]) was over 16 µg/mL.
For `CC(=O)NC[C@@H]1OC(=O)N2c3ccc(N4CCN(Cc5ccccc5[N+](=O)[O-])CC4)cc3OC[C@@H]12`, the MIC (Staphylococcus aureus [1]) was 8 µg/mL (≈ 16.6 µM), the MIC (Staphylococcus aureus [2]) was 8 µg/mL (≈ 16.6 µM) and the MIC [3] was 8 µg/mL (≈ 16.6 µM). For the same compound, the MIC (Streptococcus pneumoniae) was over 16 µg/mL and the MIC (Enterococcus faecalis [4]) was over 16 µg/mL.
`CC(=O)NC[C@@H]1OC(=O)N2c3ccc(N4CCN(Cc5ccncc5)CC4)cc3OC[C@@H]12` showed an MIC (Staphylococcus aureus [1]) of 16 µg/mL (≈ 36.6 µM), an MIC (Staphylococcus aureus [2]) of over 16 µg/mL and an MIC [3] of over 16 µg/mL. It also gave an MIC (Streptococcus pneumoniae) of over 16 µg/mL and an MIC (Enterococcus faecalis [4]) of over 16 µg/mL.
In the case of `CC(=O)NC[C@@H]1OC(=O)N2c3ccc(N4CCN(Cc5cccnc5)CC4)cc3OC[C@@H]12`, the MIC (Staphylococcus aureus [1]) is reported as 16 µg/mL (≈ 36.6 µM), the MIC (Staphylococcus aureus [2]) is reported as over 16 µg/mL and the MIC [3] is reported as over 16 µg/mL. It also gave an MIC (Streptococcus pneumoniae) of over 16 µg/mL and an MIC (Enterococcus faecalis [4]) of over 16 µg/mL.
`CC(=O)NC[C@@H]1OC(=O)N2c3ccc(N4CCN(Cc5ccccn5)CC4)cc3OC[C@@H]12` was tested, and the MIC (Staphylococcus aureus [1]) was 16 µg/mL (≈ 36.6 µM), the MIC (Staphylococcus aureus [2]) was over 16 µg/mL and the MIC [3] was over 16 µg/mL. The MIC (Streptococcus pneumoniae) was over 16 µg/mL and the MIC (Enterococcus faecalis [4]) was over 16 µg/mL.
`CC(=O)NC[C@@H]1OC(=O)N2c3ccc(N4CCN(Cc5ccco5)CC4)cc3OC[C@@H]12` was tested, and the MIC (Staphylococcus aureus [1]) was over 16 µg/mL, the MIC (Staphylococcus aureus [2]) was 16 µg/mL (≈ 37.5 µM) and the MIC [3] was over 16 µg/mL. For the same compound, the MIC (Streptococcus pneumoniae) was over 16 µg/mL and the MIC (Enterococcus faecalis [4]) was over 16 µg/mL.
`CC(=O)NC[C@@H]1OC(=O)N2c3ccc(N4CCN(Cc5ccoc5)CC4)cc3OC[C@@H]12` gave an MIC (Staphylococcus aureus [1]) of 16 µg/mL (≈ 37.5 µM), an MIC (Staphylococcus aureus [2]) of over 8 µg/mL and an MIC [3] of 8 µg/mL (≈ 18.8 µM). For the same compound, the MIC (Streptococcus pneumoniae) was over 16 µg/mL and the MIC (Enterococcus faecalis [4]) was over 16 µg/mL.
In the case of `CC(=O)NC[C@@H]1OC(=O)N2c3ccc(N4CCN(Cc5ccc([N+](=O)[O-])o5)CC4)cc3OC[C@@H]12`, the MIC (Staphylococcus aureus [1]) is reported as 4 µg/mL (≈ 8.48 µM), the MIC (Staphylococcus aureus [2]) is reported as 4 µg/mL (≈ 8.48 µM) and the MIC [3] is reported as 2 µg/mL (≈ 4.24 µM). It also gave an MIC (Streptococcus pneumoniae) of over 8 µg/mL and an MIC (Enterococcus faecalis [4]) of over 16 µg/mL.
`CC(=O)NC[C@@H]1OC(=O)N2c3ccc(-c4cccs4)cc3OC[C@@H]12` gave an MIC (Staphylococcus aureus [1]) of 1 µg/mL (≈ 2.9 µM), an MIC (Staphylococcus aureus [2]) of 1 µg/mL (≈ 2.9 µM) and an MIC [3] of 1 µg/mL (≈ 2.9 µM). For the same compound, the MIC (Streptococcus pneumoniae) was 1 µg/mL (≈ 2.9 µM) and the MIC (Enterococcus faecalis [4]) was 4 µg/mL (≈ 11.6 µM).
`CC(=O)NC[C@@H]1OC(=O)N2c3ccc(-c4ccsc4)cc3OC[C@@H]12` was tested, and the MIC (Staphylococcus aureus [1]) was 2 µg/mL (≈ 5.81 µM), the MIC (Staphylococcus aureus [2]) was 2 µg/mL (≈ 5.81 µM) and the MIC [3] was 2 µg/mL (≈ 5.81 µM). It also gave an MIC (Streptococcus pneumoniae) of 2 µg/mL (≈ 5.81 µM) and an MIC (Enterococcus faecalis [4]) of 4 µg/mL (≈ 11.6 µM).
With `CC(=O)NC[C@@H]1OC(=O)N2c3ccc(-c4ccccc4)cc3OC[C@@H]12` the MIC (Staphylococcus aureus [1]) was 0.5 µg/mL (≈ 1.48 µM), the MIC (Staphylococcus aureus [2]) was 0.5 µg/mL (≈ 1.48 µM) and the MIC [3] was 1 µg/mL (≈ 2.96 µM). It also gave an MIC (Streptococcus pneumoniae) of 0.5 µg/mL (≈ 1.48 µM) and an MIC (Enterococcus faecalis [4]) of 2 µg/mL (≈ 5.91 µM).
In the case of `CC(=O)NC[C@@H]1OC(=O)N2c3ccc(-c4cccc([N+](=O)[O-])c4)cc3OC[C@@H]12`, the MIC (Staphylococcus aureus [1]) is reported as 0.5 µg/mL (≈ 1.3 µM), the MIC (Staphylococcus aureus [2]) is reported as 0.5 µg/mL (≈ 1.3 µM) and the MIC [3] is reported as 0.5 µg/mL (≈ 1.3 µM). For the same compound, the MIC (Streptococcus pneumoniae) was 0.5 µg/mL (≈ 1.3 µM) and the MIC (Enterococcus faecalis [4]) was 2 µg/mL (≈ 5.22 µM).
`CC(=O)NC[C@@H]1OC(=O)N2c3ccc(-c4ccc(C#N)cc4)cc3OC[C@@H]12` gave an MIC (Staphylococcus aureus [1]) of 0.25 µg/mL (≈ 0.688 µM), an MIC (Staphylococcus aureus [2]) of 0.5 µg/mL (≈ 1.38 µM) and an MIC [3] of 0.5 µg/mL (≈ 1.38 µM). It also gave an MIC (Streptococcus pneumoniae) of 0.5 µg/mL (≈ 1.38 µM) and an MIC (Enterococcus faecalis [4]) of 1 µg/mL (≈ 2.75 µM).
Compound `CC(=O)NC[C@@H]1OC(=O)N2c3ccc(-c4ccc(C(C)=O)cc4)cc3OC[C@@H]12` has an MIC (Staphylococcus aureus [1]) of 1 µg/mL (≈ 2.63 µM), an MIC (Staphylococcus aureus [2]) of 1 µg/mL (≈ 2.63 µM) and an MIC [3] of 0.5 µg/mL (≈ 1.31 µM). It also gave an MIC (Streptococcus pneumoniae) of 2 µg/mL (≈ 5.26 µM) and an MIC (Enterococcus faecalis [4]) of 1 µg/mL (≈ 2.63 µM).
`CC(=O)NC[C@@H]1OC(=O)N2c3ccc(-c4cccc(N)c4)cc3OC[C@@H]12` showed an MIC (Staphylococcus aureus [1]) of 0.5 µg/mL (≈ 1.41 µM), an MIC (Staphylococcus aureus [2]) of 1 µg/mL (≈ 2.83 µM) and an MIC [3] of 1 µg/mL (≈ 2.83 µM). The MIC (Streptococcus pneumoniae) was 0.5 µg/mL (≈ 1.41 µM) and the MIC (Enterococcus faecalis [4]) was 1 µg/mL (≈ 2.83 µM).
With `CC(=O)NC[C@@H]1OC(=O)N2c3ccc(-c4ccncc4)cc3OC[C@@H]12` the MIC (Staphylococcus aureus [1]) was 0.5 µg/mL (≈ 1.47 µM), the MIC (Staphylococcus aureus [2]) was 0.5 µg/mL (≈ 1.47 µM) and the MIC [3] was 1 µg/mL (≈ 2.95 µM). For the same compound, the MIC (Streptococcus pneumoniae) was 1 µg/mL (≈ 2.95 µM) and the MIC (Enterococcus faecalis [4]) was 1 µg/mL (≈ 2.95 µM).
Compound `CC(=O)NC[C@@H]1OC(=O)N2c3ccc(-c4cccnc4)cc3OC[C@@H]12` has an MIC (Staphylococcus aureus [1]) of 0.5 µg/mL (≈ 1.47 µM), an MIC (Staphylococcus aureus [2]) of 0.5 µg/mL (≈ 1.47 µM) and an MIC [3] of 0.5 µg/mL (≈ 1.47 µM). It also gave an MIC (Streptococcus pneumoniae) of 0.5 µg/mL (≈ 1.47 µM) and an MIC (Enterococcus faecalis [4]) of 1 µg/mL (≈ 2.95 µM).
`CC(=O)NC[C@@H]1OC(=O)N2c3ccc(-c4ccc([N+](=O)[O-])nc4)cc3OC[C@@H]12` was tested, and the MIC (Staphylococcus aureus [1]) was 0.125 µg/mL (≈ 0.325 µM), the MIC (Staphylococcus aureus [2]) was 0.25 µg/mL (≈ 0.65 µM) and the MIC [3] was 0.25 µg/mL (≈ 0.65 µM). The MIC (Streptococcus pneumoniae) was 0.5 µg/mL (≈ 1.3 µM), the MIC (Enterococcus faecalis [4]) was 0.5 µg/mL (≈ 1.3 µM) and the MIC (Staphylococcus aureus [5]) was 2 µg/mL (≈ 5.2 µM). It also gave an MIC [6] of 2 µg/mL (≈ 5.2 µM), an MIC (Enterococcus faecalis [7]) of 1 µg/mL (≈ 2.6 µM) and an MIC (Enterococcus faecium) of 1 µg/mL (≈ 2.6 µM).
`CC(=O)NC[C@@H]1OC(=O)N2c3ccc(-c4ccc(N)nc4)cc3OC[C@@H]12` showed an MIC (Staphylococcus aureus [1]) of 0.5 µg/mL (≈ 1.41 µM), an MIC (Staphylococcus aureus [2]) of 0.5 µg/mL (≈ 1.41 µM) and an MIC [3] of 0.5 µg/mL (≈ 1.41 µM). For the same compound, the MIC (Streptococcus pneumoniae) was 0.5 µg/mL (≈ 1.41 µM), the MIC (Enterococcus faecalis [4]) was 0.5 µg/mL (≈ 1.41 µM) and the MIC (Staphylococcus aureus [5]) was 16 µg/mL (≈ 45.2 µM). It also gave an MIC [6] of 4 µg/mL (≈ 11.3 µM), an MIC (Enterococcus faecalis [7]) of 2 µg/mL (≈ 5.64 µM) and an MIC (Enterococcus faecium) of 2 µg/mL (≈ 5.64 µM).
Compound `CC(=O)NC[C@@H]1OC(=O)N2c3ccc(-c4cncnc4)cc3OC[C@@H]12` has an MIC (Staphylococcus aureus [1]) of 0.25 µg/mL (≈ 0.735 µM), an MIC (Staphylococcus aureus [2]) of 0.5 µg/mL (≈ 1.47 µM) and an MIC [3] of 0.5 µg/mL (≈ 1.47 µM). It also gave an MIC (Streptococcus pneumoniae) of 1 µg/mL (≈ 2.94 µM) and an MIC (Enterococcus faecalis [4]) of 1 µg/mL (≈ 2.94 µM).
Work on `COc1ncc(-c2ccc3c(c2)OC[C@H]2[C@H](CNC(C)=O)OC(=O)N32)c(OC)n1` yielded an MIC (Staphylococcus aureus [1]) of 1 µg/mL (≈ 2.5 µM), an MIC (Staphylococcus aureus [2]) of 1 µg/mL (≈ 2.5 µM) and an MIC [3] of 1 µg/mL (≈ 2.5 µM). The MIC (Streptococcus pneumoniae) was 1 µg/mL (≈ 2.5 µM) and the MIC (Enterococcus faecalis [4]) was 1 µg/mL (≈ 2.5 µM).

Reference: ChEMBL document CHEMBL1914384, “Design, synthesis, and structure-activity relationship studies of highly potent novel benzoxazinyl-oxazolidinone antibacterial agents” (J Med Chem, 2011)
